Reference: patent US20200187499A1, “SUBSTITUTED BENZYL-4-AMINOPICOLINIC ESTERS AND PYRIMIDINO-4-CARBOXYLIC ESTERS, METHODS FOR THE PRODUCTION THEREOF, AND USE THEREOF AS HERBICIDES AND PLANT GROWTH REGULATORS” (Bayer CropScience Aktiengesellschaft, priority 2017, published 2020)

What was measured:
Type in all cases: in vivo
[1] = test system: ABUTH; test: Pre-emergence herbicidal action; settings: Table 2, pre-emergence (PE), 320 g/ha, scored after 3 weeks
Outline: (§1)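 Sandy loam, seeds covered with soil. Pre-em soil-surface spray, WP or EC in water, 600 to 800 l/ha, 0.2% wetting agent. Greenhouse, 3 wk. Visual % damage vs untreated (100% = dead).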

[2] = test system: ALOMY; test: Pre-emergence herbicidal action; settings: Table 2, pre-emergence (PE), 320 g/ha, scored after 3 weeks
Outline: as §1

[3] = test system: AMARE; test: Pre-emergence herbicidal action; settings: Table 2, pre-emergence (PE), 320 g/ha, scored after 3 weeks
Outline: as §1

[4] = test system: ECHCG; test: Pre-emergence herbicidal action; settings: Table 2, pre-emergence (PE), 320 g/ha, scored after 3 weeks
Outline: as §1

[5] = test system: POLCO; test: Pre-emergence herbicidal action; settings: Table 2, pre-emergence (PE), 320 g/ha, scored after 3 weeks
Outline: as §1

[6] = test system: SETVI; test: Pre-emergence herbicidal action; settings: Table 2, pre-emergence (PE), 320 g/ha, scored after 3 weeks
Outline: as §1

[7] = test system: VIOTR; test: Pre-emergence herbicidal action; settings: Table 2, pre-emergence (PE), 320 g/ha, scored after 3 weeks
Outline: as §1

[8] = test system: ABUTH; test: Post-emergence herbicidal action; settings: Table 5, post-emergence (PO), 320 g/ha, assessed after about 3 weeks
Outline: (§2)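 Greenhouse post-emergence spray, one-leaf stage (2–3 wk after sowing, sandy loam). WP/EC formulation, aqueous, 600–800 l/ha, + 0.2% wetting agent. Visual rating ~3 wk, % vs untreated (100 = dead).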

[9] = test system: AMARE; test: Post-emergence herbicidal action; settings: Table 5, post-emergence (PO), 320 g/ha, assessed after about 3 weeks
Outline: as §2

[10] = test system: ECHCG; test: Post-emergence herbicidal action; settings: Table 5, post-emergence (PO), 320 g/ha, assessed after about 3 weeks
Outline: as §2

[11] = test system: PHBPU; test: Post-emergence herbicidal action; settings: Table 5, post-emergence (PO), 320 g/ha, assessed after about 3 weeks
Outline: as §2

[12] = test system: POLCO; test: Post-emergence herbicidal action; settings: Table 5, post-emergence (PO), 320 g/ha, assessed after about 3 weeks
Outline: as §2

[13] = test system: SETVI; test: Post-emergence herbicidal action; settings: Table 5, post-emergence (PO), 320 g/ha, assessed after about 3 weeks
Outline: as §2

[14] = test system: STEME; test: Post-emergence herbicidal action; settings: Table 5, post-emergence (PO), 320 g/ha, assessed after about 3 weeks
Outline: as §2

[15] = test system: VIOTR; test: Post-emergence herbicidal action; settings: Table 5, post-emergence (PO), 320 g/ha, assessed after about 3 weeks
Outline: as §2

| Structure (SMILES) | Herbicidal action against ABUTH [1] [%] | Herbicidal action against ALOMY [2] [%] | Herbicidal action against AMARE [3] [%] | Herbicidal action against ECHCG [4] [%] | Herbicidal action against POLCO [5] [%] | Herbicidal action against SETVI [6] [%] | Herbicidal action against VIOTR [7] [%] | Herbicidal action against ABUTH [8] [%] | Herbicidal action against AMARE [9] [%] | Herbicidal action against ECHCG [10] [%] | Herbicidal action against PHBPU [11] [%] | Herbicidal action against POLCO [12] [%] | Herbicidal action against SETVI [13] [%] | Herbicidal action against STEME [14] [%] | Herbicidal action against VIOTR [15] [%] |
| --- | --- | --- | --- | --- | --- | --- | --- | --- | --- | --- | --- | --- | --- | --- | --- |
| Nc1cc(-c2ccc3ccoc3c2)nc(C(=O)OCc2cccc(F)c2)c1Cl [Example I-02] | 30 | 80 | 100 | 100 | 100 | 90 | 70 | 90 | 100 | 90 | 70 | 100 | 100 | 100 | 70 |
| Nc1cc(-c2ccc3ccsc3c2)nc(C(=O)OCc2cccc(F)c2)c1Cl [Example I-10] | 30 | 70 | 100 | 100 | 0 | 90 | 40 | 100 | 100 | 90 | 80 | 100 | 90 | 100 | 70 |
| Nc1cc(-c2ccc3occc3c2)nc(C(=O)OCc2ccc(F)c(F)c2F)c1Cl [Example I-13] | 30 | 80 | 100 | 90 | 100 | 100 | 30 | 100 | 100 | 90 | 80 | 100 | 90 | 100 | 100 |
| COc1ccc(COC(=O)c2nc(-c3ccc4ccoc4c3)c(F)c(N)c2Cl)cc1 [Example I-03] | 80 | 20 | 100 | 90 | 50 | 40 | 90 | 100 | 100 | 100 | 40 | 40 | 90 | 100 | 100 |
| Nc1cc(-c2ccc3ccsc3c2)nc(C(=O)OCc2ccccc2F)c1Cl [Example I-01] | 80 | 60 | 100 | 100 | 100 | 90 | 70 | 100 | 100 | 90 | 90 | 100 | 80 | 100 | 50 |
| Nc1cc(-c2ccc3sccc3c2)nc(C(=O)OCc2ccc(C(F)(F)F)cc2)c1Cl [Example I-16] | 80 | 30 | 80 | 100 | 70 | 80 | 30 | 100 | 100 | 90 | 80 | 90 | 90 | 80 | 90 |
